According to the supplement of paper PMC11451515:

How the values were obtained:
Conditions in all cases: 48 h
NOMO1 [1] = assay: AUC of viability dose-response curve (% viability x log10 dose units); higher = less sensitive
How it was run: (§1)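 Leukemia cells adapted to each medium were seeded in 1536-well plates (500 or 1000 cells/well). They were dosed with library compounds in DMSO at 11 threefold doses, 47 μM to 0.79 nM, for 48 h at 37°C. CellTiter-Glo One luminescence was normalised per plate to DMSO and cell-free wells. Area under the curve was integrated by trapezoidal rule over log10 doses on a four-parameter log-logistic fit; curves exceeding full viability were scaled and curves failing quality control removed.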

P12-Ichikawa [2] = assay: as above
How it was run: as §1

SEM cells [3] = assay: as above
How it was run: as §1

NOMO1 [4] = assay: cell viability relative to DMSO control; higher = less cytotoxic
How it was run: (§2)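 Three leukemia lines were tested: NOMO1 and SEM at 500 cells/well and P12-Ichikawa at 1000 cells/well. Each was adapted for at least four passages in each medium and seeded in 5 μl in 1536-well plates, and library compounds in DMSO were pin-dosed from 47 μM to 0.79 nM in 11 threefold steps. After 48 h at 37°C, CellTiter-Glo One luminescence was read. Viability is a percentage relative to DMSO wells on each plate, with cell-free wells as background.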

P12-Ichikawa [5] = assay: as above
How it was run: as §2

SEM cells [6] = assay: as above
How it was run: as §2

Cc1cc(Cl)ccc1OCCCC(=O)NO
AUC of viability dose-response curve
Conditions | NOMO1 [1] | P12-Ichikawa [2] | SEM cells [3]
HPLM + 10% dialyzed FBS | 438 | 400 | 411
RPMI 5 mM glucose + 10% FBS | 428 | 380 | 418
RPMI 5 mM glucose + 10% dialyzed FBS | 444 | 336 | 403

cell viability [%]
Conditions | NOMO1 [4] | P12-Ichikawa [5] | SEM cells [6]
HPLM + 10% dialyzed FBS, 0.000781 µM | 106 | 102 | 105
HPLM + 10% dialyzed FBS, 0.00234 µM | 117 | 105 | 96.7
HPLM + 10% dialyzed FBS, 0.00702 µM | 107 | 105 | 103
HPLM + 10% dialyzed FBS, 0.0211 µM | 94.8 | 116 | 117
HPLM + 10% dialyzed FBS, 0.0632 µM | 110 | 106 | 130
HPLM + 10% dialyzed FBS, 0.19 µM | 122 | 105 | 120
HPLM + 10% dialyzed FBS, 0.569 µM | 117 | 101 | 118
HPLM + 10% dialyzed FBS, 1.71 µM | 112 | 98.6 | 101
HPLM + 10% dialyzed FBS, 5.12 µM | 103 | 78.3 | 89
HPLM + 10% dialyzed FBS, 15.4 µM | 67 | 15 | 34
HPLM + 10% dialyzed FBS, 46.1 µM | 33.5 | 3.84 | 12.8
RPMI 5 mM glucose + 10% FBS, 0.000781 µM | 93.5 | 97.8 | 107
RPMI 5 mM glucose + 10% FBS, 0.00234 µM | 112 | 102 | 101
RPMI 5 mM glucose + 10% FBS, 0.00702 µM | 93.2 | 108 | 102
RPMI 5 mM glucose + 10% FBS, 0.0211 µM | 112 | 110 | 122
RPMI 5 mM glucose + 10% FBS, 0.0632 µM | 113 | 101 | 112
RPMI 5 mM glucose + 10% FBS, 0.19 µM | 96.9 | 98.2 | 117
RPMI 5 mM glucose + 10% FBS, 0.569 µM | 106 | 99.4 | 115
RPMI 5 mM glucose + 10% FBS, 1.71 µM | 107 | 81.2 | 124
RPMI 5 mM glucose + 10% FBS, 5.12 µM | 94 | 57.9 | 91.7
RPMI 5 mM glucose + 10% FBS, 15.4 µM | 52.3 | 17.4 | 43.9
RPMI 5 mM glucose + 10% FBS, 46.1 µM | 15.9 | 3.91 | 10.9
RPMI 5 mM glucose + 10% dialyzed FBS, 0.000781 µM | 105 | 113 | 98.8
RPMI 5 mM glucose + 10% dialyzed FBS, 0.00234 µM | 121 | 104 | 96.2
RPMI 5 mM glucose + 10% dialyzed FBS, 0.00702 µM | 101 | 108 | 93.5
RPMI 5 mM glucose + 10% dialyzed FBS, 0.0211 µM | 114 | 111 | 99.4
RPMI 5 mM glucose + 10% dialyzed FBS, 0.0632 µM | 99.5 | 111 | 97.1
RPMI 5 mM glucose + 10% dialyzed FBS, 0.19 µM | 104 | 102 | 106
RPMI 5 mM glucose + 10% dialyzed FBS, 0.569 µM | 119 | 100 | 105
RPMI 5 mM glucose + 10% dialyzed FBS, 1.71 µM | 114 | 35.9 | 89.5
RPMI 5 mM glucose + 10% dialyzed FBS, 5.12 µM | 117 | 37.2 | 76.5
RPMI 5 mM glucose + 10% dialyzed FBS, 15.4 µM | 73.4 | 5.67 | 26.7
RPMI 5 mM glucose + 10% dialyzed FBS, 46.1 µM | 31 | 3.42 | 10.2

NC\1=N\C(=O)N(\C=C1)[C@H]\2[C@H](O)[C@H](O)C(=C2F)\CO
AUC of viability dose-response curve
Conditions | NOMO1 [1] | P12-Ichikawa [2] | SEM cells [3]
HPLM + 10% dialyzed FBS | 369 | 361 | 376
RPMI 5 mM glucose + 10% FBS | 378 | 394 | 421
RPMI 5 mM glucose + 10% dialyzed FBS | 369 | 389 | 353

cell viability [%]
Conditions | NOMO1 [4] | P12-Ichikawa [5] | SEM cells [6]
HPLM + 10% dialyzed FBS, 0.000781 µM | 78.5 | 95.2 | 77.6
HPLM + 10% dialyzed FBS, 0.00234 µM | 111 | 106 | 90.2
HPLM + 10% dialyzed FBS, 0.00702 µM | 105 | 104 | 85
HPLM + 10% dialyzed FBS, 0.0211 µM | 101 | 105 | 103
HPLM + 10% dialyzed FBS, 0.0632 µM | 110 | 105 | 92.2
HPLM + 10% dialyzed FBS, 0.19 µM | 90.8 | 106 | 97.6
HPLM + 10% dialyzed FBS, 0.569 µM | 94.7 | 104 | 108
HPLM + 10% dialyzed FBS, 1.71 µM | 67.5 | 60 | 96.3
HPLM + 10% dialyzed FBS, 5.12 µM | 32.1 | 28 | 52.5
HPLM + 10% dialyzed FBS, 15.4 µM | 33.6 | 19.3 | 28.8
HPLM + 10% dialyzed FBS, 46.1 µM | 11.3 | 16.5 | 16.8
RPMI 5 mM glucose + 10% FBS, 0.000781 µM | 86.3 | 89.4 | 118
RPMI 5 mM glucose + 10% FBS, 0.00234 µM | 112 | 96.8 | 116
RPMI 5 mM glucose + 10% FBS, 0.00702 µM | 117 | 96.3 | 130
RPMI 5 mM glucose + 10% FBS, 0.0211 µM | 106 | 106 | 148
RPMI 5 mM glucose + 10% FBS, 0.0632 µM | 107 | 103 | 113
RPMI 5 mM glucose + 10% FBS, 0.19 µM | 88.2 | 114 | 118
RPMI 5 mM glucose + 10% FBS, 0.569 µM | 93 | 101 | 128
RPMI 5 mM glucose + 10% FBS, 1.71 µM | 83.5 | 95.7 | 117
RPMI 5 mM glucose + 10% FBS, 5.12 µM | 54.6 | 47.8 | 74.1
RPMI 5 mM glucose + 10% FBS, 15.4 µM | 12.6 | 29.1 | 74.5
RPMI 5 mM glucose + 10% FBS, 46.1 µM | 7.41 | 16.9 | 57.9
RPMI 5 mM glucose + 10% dialyzed FBS, 0.000781 µM | 89.1 | 91.8 | 90.2
RPMI 5 mM glucose + 10% dialyzed FBS, 0.00234 µM | 96.9 | 114 | 95.3
RPMI 5 mM glucose + 10% dialyzed FBS, 0.00702 µM | 104 | 114 | 95.1
RPMI 5 mM glucose + 10% dialyzed FBS, 0.0211 µM | 111 | 116 | 103
RPMI 5 mM glucose + 10% dialyzed FBS, 0.0632 µM | 109 | 115 | 117
RPMI 5 mM glucose + 10% dialyzed FBS, 0.19 µM | 107 | 108 | 109
RPMI 5 mM glucose + 10% dialyzed FBS, 0.569 µM | 111 | 100 | 92.2
RPMI 5 mM glucose + 10% dialyzed FBS, 1.71 µM | 86.4 | 89.4 | 51.8
RPMI 5 mM glucose + 10% dialyzed FBS, 5.12 µM | 27.7 | 67.9 | 23.1
RPMI 5 mM glucose + 10% dialyzed FBS, 15.4 µM | 10.2 | 23.4 | 19
RPMI 5 mM glucose + 10% dialyzed FBS, 46.1 µM | 7.62 | 11.4 | 15.3
